In patent US20230076310A1, “COMPOSITION USING NOVEL LACTOBACILLUS PLANTARUM KC3 STRAIN FOR PREVENTION OR TREATMENT OF IMMUNE IMPAIRMENT, RESPIRATORY INFLAMMATORY DISEASE, ALLERGY, AND ASTHMA AND USE THEREOF” (KT&G CORPORATION, priority 2020, published 2023):

What was measured:
Type in all cases: in vivo, BALb/c male mice
[1] = test system: neutrophils in BAL fluid; experiment: Number of neutrophils in BAL fluid, mouse model of respiratory damage by air pollutants; details: oral, 11 days (KC3 1×10^9 CFU/mouse; positive control 3 mg per kg BW per day)
Protocol: (§1) BALb/c male mice (Orient Bio Inc., 8-week-old) were divided into groups of 6 mice, and for all groups except for the normal group, components of air pollutants, i.e., 10 mg/ml of coal combustible materials, 10 mg/ml of fly ash, and 5 mg/ml of diesel exhaust particle (DEP) were diluted so that a final concentration of Alum was 1%, and so that a final concentration of each component was 1.5 mg/ml for coal combustible material/fly ash and […] for DEP in a mixture. Then, on each of the 4th, 7th, and 10th days from the start of the experiment, 50 μl of the mixture was directly injected into the airway and nose of the experimental animals according to the Intra-Nazal-Trachea (INT) injection method described in the document (Lim et al., Free Radic Biol Med. 25(6), 635-644. (1998), Shin et al., Korean J. Medicinal Crop Sci 27(3), 218-231. (2019)).
(§2) For a positive control group (dexamethasone, Sigma D2915), lactic acid bacteria (Lactobacillus plantarum KC3, KC3) was diluted at a concentration of 1×10^9 CFU/mouse in a solution containing 0.5% sodium carboxymethyl cellulose (CMC, 419273, Sigma-Aldrich), and then orally administered at a dosage of 3 mg per kg of body weight (BW) per day (for 11 days). On the 12th day after the start of the experiment, an autopsy was performed on the mice, and bronchoalveolar lavage (BAL) fluid was collected. […]

[2] = test system: IL-17A; experiment: Inflammation factors in BAL fluid (ELISA), mouse model of respiratory damage by air pollutants; details: oral, 11 days (KC3 1×10^9 CFU/mouse; positive control 3 mg per kg BW per day)
Protocol: as §1
(§3) For a positive control group (dexamethasone, Sigma D2915), lactic acid bacteria (Lactobacillus plantarum KC3, KC3) was diluted at a concentration of 1×10^9 CFU/mouse in a solution containing 0.5% sodium carboxymethyl cellulose (CMC, 419273, Sigma-Aldrich), and then orally administered at a dosage of 3 mg per kg of body weight (BW) per day (for 11 days). On the 12th day after the start of the experiment, an autopsy was performed on the mice, and bronchoalveolar lavage (BAL) fluid was collected.
(§4) To confirm effects of the samples in Examples above on expression levels of inflammation factors in the BAL fluid, an experiment was carried out as follows by applying the method described in the document (Brandt E B et al., J. Allergy Clin. Immunol., 132(5):1194-1204, (2013)).
(§5) An evaluation test was performed using ELISA to measure the expression levels of inflammation factors, such as IL-17A, TNF-α MIP2, and CXCL-1, in the BAL fluid.
(§6) The experiment was carried out in the same manner as in Experimental Examples 4-2 and 4-3, except that […].
(§7) The expression levels of IL-17A, TNF-α MIP2, and CXCL-1 in the BAL fluid were measured using ELISA. IL-17A antibodies (M1700, R&D Systems, Minneapolis, USA), TNF-α antibodies (MTA00B, R&D Systems, Minneapolis, USA), MIP2 antibodies (MM200, R&D Systems, Minneapolis, USA), and CXCL-1 antibodies (MKC00B, R&D Systems, Minneapolis, USA) were diluted with a buffer solution and coated micro-wells, and then cultured at 4° C. for 16 hours. Each well was washed with a washing buffer solution three times, and 10-fold diluted […] was dispensed at 100 μl per well.
(§8) After being left at room temperature for one hour, the wells were washed twice. Then, 100 μl of Avidin-HRP-conjugated antibodies (DY007, R&D Systems, Minneapolis, USA) was treated thereon, and the wells were left again at room temperature for one hour, followed by washing again. A TMB substrate solution (DY007, R&D Systems, Minneapolis, USA) was dispensed at 100 μl per well, and the well plate was left in shadow for 30 minutes. Then, 50 μl of a stopping solution (DY007, R&D Systems, Minneapolis, USA) was treated thereon, and absorbance of the […] was measured at 450 nm.

[3] = test system: CXCL-1; experiment: as above; details: oral, 11 days (KC3 1×10^9 CFU/mouse; positive control 3 mg per kg BW per day)
Protocol: as §1, §3, §4, §5, §6, §7, §8

[4] = test system: TNF-α; experiment: as above; details: oral, 11 days (KC3 1×10^9 CFU/mouse; positive control 3 mg per kg BW per day)
Protocol: as §1, §3, §4, §5, §6, §7, §8

[5] = test system: MIP2; experiment: as above; details: oral, 11 days (KC3 1×10^9 CFU/mouse; positive control 3 mg per kg BW per day)
Protocol: as §1, §3, §4, §5, §6, §7, §8

[6] = test system: total number of cells in bronchoalveolar lavage (BAL) fluid; experiment: Total number of cells in BAL fluid, mouse model of respiratory damage by air pollutants; details: oral, 11 days (KC3 1×10^9 CFU/mouse; positive control 3 mg per kg BW per day), BAL fluid on 12th day
Protocol: as §1, §2

Q: Which results are given for `C[C@@H]1C[C@H]2[C@@H]3CCC4=CC(=O)C=C[C@]4(C)[C@@]3(F)[C@@H](O)C[C@]2(C)[C@@]1(O)C(=O)CO` [Positive control group, dexamethasone]?
A: Inhibition rate (based on induced group), neutrophils [1]: 10%; Neutrophile No of BAL cel (400X) ([1]; Diff-Qick staining, induction group 119 ± 13): 108 ± 9; IL-17A inhibition rate (%) based on induced group [2]: (47%); IL-17A concentration in BAL fluid ([2]; ELISA, induction group 13.4 ± 1.5): 7.0 ± 0.8 pg/mL; CXCL-1 inhibition rate (%) based on induced group [3]: (46%); CXCL-1 concentration in BAL fluid ([3]; ELISA, induction group 327 ± 41): 174 ± 15 pg/mL; TNF-α inhibition rate (%) based on induced group [4]: (66%); TNF-α concentration in BAL fluid ([4]; ELISA, induction group 366 ± 45): 121 ± 14 pg/mL; MIP2 inhibition rate (%) based on induced group [5]: (19%); MIP2 concentration in BAL fluid ([5]; ELISA, induction group 68 ± 7): 55 ± 9 pg/mL; Inhibition rate (based on induction group), total BAL cell [6]: 11%; Total BAL cell ([6]; induction group 81.2 ± 19.8): 72.6 ± 9.5 ×10^4 cells/ml
